Results from ChEMBL document CHEMBL1134487, “Design, synthesis, and biological evaluation of analogues of the antitumor agent, 2-(4-[(7-chloro-2-quinoxalinyl)oxy]phenoxy)propionic acid (XK469)” (2001).
Active and inactive are the calls of the source. No cut-off for these calls is given here.

Legend:
[1] = system: Mus musculus; assay: In vivo activity against iv transplanted AML Leukemia 1498 tumors of mice; Not active; format: functional, organism-based
[2] = system: Mus musculus; assay: In vivo activity against transplanted Mam-16/C/ Taxol tumors of mice; Not active; format: functional, organism-based
[3] = system: Mus musculus; assay: In vivo activity against transplanted Mam-16/C/Adr tumors of mice; Not active; format: functional, organism-based
[4] = system: Mus musculus; assay: In vivo activity against transplanted Mam-17 tumors of mice; Not active; format: functional, organism-based
[5] = system: Mus musculus; assay: In vivo activity against transplanted Mam-17/Adr tumors of mice; Not active; format: functional, organism-based
[6] = system: Mus musculus; assay: In vivo activity against transplanted Mel-B16 tumors of mice; Not active; format: functional, organism-based
[7] = system: Mus musculus; assay: In vivo activity against transplanted Panc-02 tumors of mice; Not active; format: functional, organism-based
[8] = system: Mus musculus; assay: In vivo activity against transplanted Panc-03 tumors of mice; Not active; format: functional, organism-based
[9] = system: Mus musculus; assay: In vivo activity against transplanted colon-51 tumors of mice; Not active; format: functional, organism-based
[10] = system: Mus musculus; assay: In vivo activity against iv transplanted Leukemia L1210 tumors of mice; format: functional, organism-based
[11] = system: Mus musculus; assay: In vivo activity against transplanted Mam-16/C tumors of mice; format: functional, organism-based
[12] = system: Mus musculus; assay: In vivo activity against transplanted Squam lung-LC12 tumors of mice; format: functional, organism-based
[13] = system: Mus musculus; assay: In vivo activity against transplanted colon-26 tumors of mice; format: functional, organism-based
[14] = system: Mus musculus; assay: In vivo activity against transplanted colon-38 tumors of mice; format: functional, organism-based
[15] = system: Mus musculus; assay: In vivo activity against iv transplanted AML Leukemia 1498 tumors of mice; format: functional, organism-based
[16] = system: Mus musculus; assay: In vivo activity against transplanted Mam-17/Adr tumors of mice; format: functional, organism-based
[17] = system: Mus musculus; assay: In vivo activity against transplanted Panc-02 tumors of mice; format: functional, organism-based
[18] = system: Mus musculus; assay: In vivo activity against transplanted Panc-03 tumors of mice; format: functional, organism-based
[19] = system: Mus musculus; assay: In vivo activity against transplanted colon-51 tumors of mice; format: functional, organism-based
[20] = system: Mus musculus; assay: In vivo activity against transplanted Mel-B16 tumors of mice; format: functional, organism-based
[21] = system: Mus musculus; assay: In vivo activity against transplanted Mam-17 tumors of mice; format: functional, organism-based
[22] = species: Mus musculus; assay: […] activity against C3H mice bearing panc-03 murine tumor; Inactive; format: functional, organism-based
[23] = system: Mus musculus; assay: In vivo activity tested against C3H mice bearing panc-03 murine tumor measured as % treated/control calculated at 700 mg/kg (po); format: functional
[24] = system: Mus musculus; assay: In vivo activity tested against C3H mice bearing panc-03 murine tumor measured as body weight loss at 700 mg/kg (po); format: functional
[25] = system: Mus musculus; assay: In vivo activity tested against C3H mice bearing panc-03 murine tumor measured as log Kill value was based on tumors that grew at 700 mg/kg (po); format: functional, organism-based; parameters: dose 700 mg/kg
[26] = system: Mus musculus; assay: In vivo activity against iv transplanted Leukemia L1210 tumors of mice; Not active; format: functional, organism-based
[27] = system: Mus musculus; assay: In vivo activity against transplanted colon-26 tumors of mice; Not active; format: functional, organism-based
[28] = system: Mus musculus; assay: In vivo activity against transplanted Mam-16/C/Adr tumors of mice; format: functional, organism-based
[29] = system: Mus musculus; assay: In vivo activity against transplanted Mam-16/C/ Taxol tumors of mice; format: functional, organism-based
[30] = system: Mus musculus; assay: In vivo activity tested against C3H mice bearing mammary adenocarcinoma -17/ADR tumor measured as body weight loss at 301 mg/kg (po); format: functional
[31] = system: Mus musculus; assay: In vivo activity tested against C3H mice bearing mammary adenocarcinoma -17/ADR tumor measured as % treated/control calculated at 301 mg/kg (po); format: functional
[32] = system: Mus musculus; assay: In vivo activity tested against C3H mice bearing mammary adenocarcinoma -17/ADR tumor measured as activity rating at 301 mg/kg (po); format: functional
[33] = system: Mus musculus; assay: In vivo activity tested against C3H mice bearing mammary adenocarcinoma -17/ADR tumor measured as log Kill value was based on tumors that grew at 301 mg/kg (po); format: functional, organism-based; parameters: dose 301 mg/kg
[34] = system: Mus musculus; assay: In vivo antitumor activity against tumor […]; Inactive; format: functional, organism-based

In the case of Nc1ccn([C@@H]2O[C@H](CO)[C@@H](O)C2(F)F)c(=O)n1, the NA [1] was “inactive”, the NA [2] was “inactive” and the NA [3] was “inactive”. The NA [4] was “inactive”, the NA [5] was “inactive” and the NA [6] was “inactive”. The NA [7] was “inactive”, the NA [8] was “inactive” and the NA [9] was “inactive”. For the same molecule, the Log kill [10] was > 5, the Log kill [11] was > 2.8 and the Log kill [12] was < 0.7. It also gave a Log kill [13] of 2.8 and a Log kill [14] of 2.8.
Nc1ccn([C@@H]2O[C@H](CO)[C@@H](O)[C@@H]2O)c(=O)n1 was tested, and the NA [2] was “inactive”, the NA [3] was “inactive” and the Log kill [15] was > 2.8. The Log kill [10] was > 5, the Log kill [11] was 1.9 and the Log kill [16] was 2.8. For the same molecule, the Log kill [17] was < 0.7, the Log kill [18] was < 0.7 and the Log kill [12] was < 0.7. The Log kill [13] was < 0.7, the Log kill [14] was 1.9 and the Log kill [19] was < 0.7. For the same molecule, the Log kill [20] was < 0.7 and the Log kill [21] was 1.9.
With CC(Oc1ccc(Oc2cnc3ccc(N)cc3n2)cc1)C(=O)O (stereo not drawn) the NA [22] was “inactive”.
CC(Oc1ccc(Oc2cnc3cc([N+](=O)[O-])ccc3n2)cc1)C(=O)O (stereo not drawn) gave a T/C [23] of 41%, a Body weight loss [24] of -1.4% and a Log kill [25] of 0.42.
In the case of CC[C@@]1(O)C(=O)OCc2c1cc1n(c2=O)Cc2cc3ccccc3nc2-1, the NA [1] was “inactive”, the NA [26] was “inactive” and the NA [2] was “inactive”. For the same molecule, the NA [3] was “inactive”, the NA [4] was “inactive” and the NA [5] was “inactive”. For the same molecule, the NA [27] was “inactive”, the Log kill [11] was 2.8 and the Log kill [17] was < 0.7. For the same molecule, the Log kill [18] was > 2.8, the Log kill [12] was < 0.7 and the Log kill [14] was 1.2. It also gave a Log kill [19] of 1.2 and a Log kill [20] of 1.2.
CISPLATIN was tested, and the NA [1] was “inactive”, the NA [2] was “inactive” and the Log kill [10] was 2.9. The Log kill [11] was 1.2, the Log kill [28] was 1.2 and the Log kill [16] was > 2.8. For the same molecule, the Log kill [17] was < 0.7, the Log kill [18] was 1.9 and the Log kill [12] was > 2.8. The Log kill [13] was 1.9, the Log kill [14] was 0.7 and the Log kill [19] was 1.9. The Log kill [20] was 1.9 and the Log kill [21] was 2.8.
With COc1cc([C@@H]2c3cc4c(cc3[C@@H](O[C@@H]3O[C@@H]5CO[C@@H](C)O[C@H]5[C@H](O)[C@H]3O)[C@H]3COC(=O)[C@H]23)OCO4)cc(OC)c1O the NA [1] was “inactive”, the Log kill [10] was > 5 and the Log kill [11] was 2.8. For the same molecule, the Log kill [29] was 1.2, the Log kill [28] was < 0.7 and the Log kill [16] was < 0.7. The Log kill [17] was < 0.7, the Log kill [18] was 1.9 and the Log kill [12] was > 2.8. For the same molecule, the Log kill [13] was < 0.7, the Log kill [14] was 1.9 and the Log kill [19] was 0.7. The Log kill [20] was < 0.7 and the Log kill [21] was 1.9.
With C[C@H](Oc1ccc(Oc2cnc3ccc(Cl)cc3n2)cc1)C(=O)O the Body weight loss [30] was -3%, the T/C [31] was 0% and the Activity rating [32] was >2.8. It also gave a Log kill [33] of 2.7.
For O=c1[nH]cc(F)c(=O)[nH]1, the NA [2] was “inactive”, the Log kill [15] was 1.2 and the Log kill [10] was 4.9. For the same molecule, the Log kill [11] was 2.8, the Log kill [28] was 2.8 and the Log kill [16] was < 0.7. For the same molecule, the Log kill [17] was < 0.7, the Log kill [18] was 1.2 and the Log kill [12] was < 0.7. The Log kill [13] was 1.9, the Log kill [14] was 2.8 and the Log kill [19] was < 0.7. The Log kill [20] was 1.9 and the Log kill [21] was 1.2.
With CC(Oc1ccccc1Oc1cnc2ccc(Cl)cc2n1)C(=O)O (stereo not drawn) the NA [34] was “inactive”.
With O=NN(CCCl)C(=O)NCCCl the NA [1] was “inactive”, the NA [2] was “inactive” and the Log kill [10] was > 5. The Log kill [11] was < 0.7, the Log kill [28] was 0.7 and the Log kill [16] was < 0.7. For the same molecule, the Log kill [17] was < 0.7, the Log kill [18] was < 0.7 and the Log kill [12] was 1.2. The Log kill [13] was > 2.8, the Log kill [14] was < 0.7 and the Log kill [19] was 1.9. For the same molecule, the Log kill [20] was > 2.8 and the Log kill [21] was < 0.7.
With CC(Oc1ccc(-c2ccc(Oc3cnc4ccc(Cl)cc4n3)cc2)cc1)C(=O)O (stereo not drawn) the NA [34] was “inactive”.
